The supplement of paper PMC10307832

Legend:
Test in all cases: relative viability (nuclei count vs DMSO), 5 days (fraction); higher = more cells survive
Metformin + Lapatinib = compound: CN(C)C(=N)NC(=N)N [Metformin] + CS(=O)(=O)CCNCc1ccc(-c2ccc3ncnc(Nc4ccc(OCc5cccc(F)c5)c(Cl)c4)c3c2)o1 [Lapatinib] (partner 2 µM)
Procedure, shortened: (§1)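 Lung cancer cell lines were seeded in 1536-well plates and dosed by pin tool the next day, with either a single drug or a fixed anchor-drug dose combined with five library-drug doses (not always all listed) spaced in √10 steps. Five days later, one step fixed the cells and stained their nuclei (final 0.05% Triton X-100, 1% formaldehyde, 1 ug/ml Hoechst), and nuclei were counted on 4× images. Relative viability is the nuclei count in treated wells divided by the count in vehicle wells, and each value is the median of duplicate plates.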

Apatinib + OSI-027 = compound: N#CC1(c2ccc(NC(=O)c3cccnc3NCc3ccncc3)cc2)CCCC1 [Apatinib] + COc1cccc2cc(-c3nc([C@H]4CC[C@H](C(=O)O)CC4)n4ncnc(N)c34)[nH]c12 [OSI-027] (partner 0.5 µM)
Procedure, shortened: as §1

Apatinib + AZD7762 = compound: N#CC1(c2ccc(NC(=O)c3cccnc3NCc3ccncc3)cc2)CCCC1 [Apatinib] + NC(=O)Nc1cc(-c2cccc(F)c2)sc1C(=O)N[C@H]1CCCNC1 [AZD7762] (partner 0.2 µM)
Procedure, shortened: as §1

Metformin + Foretinib = compound: CN(C)C(=N)NC(=N)N [Metformin] + COc1cc2c(Oc3ccc(NC(=O)C4(C(=O)Nc5ccc(F)cc5)CC4)cc3F)ccnc2cc1OCCCN1CCOCC1 [Foretinib] (partner 0.25 µM)
Procedure, shortened: as §1

Cell Line | relative viability (Metformin + Lapatinib; first compound 10 µM) | relative viability (Metformin + Lapatinib; first compound 31.62 µM) | relative viability (Metformin + Lapatinib; first compound 100 µM) | relative viability (Metformin + Lapatinib; first compound 316.23 µM) | relative viability (Metformin + Lapatinib; first compound 1000 µM) | relative viability (Apatinib + OSI-027; first compound 0.08 µM) | relative viability (Apatinib + OSI-027; first compound 0.253 µM) | relative viability (Apatinib + OSI-027; first compound 0.8 µM) | relative viability (Apatinib + OSI-027; first compound 2.53 µM) | relative viability (Apatinib + OSI-027; first compound 8 µM) | relative viability (Apatinib + AZD7762; first compound 0.08 µM) | relative viability (Apatinib + AZD7762; first compound 0.253 µM) | relative viability (Apatinib + AZD7762; first compound 0.8 µM) | relative viability (Apatinib + AZD7762; first compound 2.53 µM) | relative viability (Apatinib + AZD7762; first compound 8 µM) | relative viability (Metformin + Foretinib; first compound 10 µM) | relative viability (Metformin + Foretinib; first compound 31.62 µM) | relative viability (Metformin + Foretinib; first compound 100 µM) | relative viability (Metformin + Foretinib; first compound 316.23 µM) | relative viability (Metformin + Foretinib; first compound 1000 µM)
NCI-H1437 | 0.868 | 0.887 | 0.619 | 0.712 | 0.808 | 0.84 | 0.954 | 0.861 | 0.615 | 0.645 | 1.07 | 1.12 | 1.02 | 1.04 | 0.812 | 1.3 | 1.31 | 1.32 | 1.29 | 1.21
LXF-289 | 0.812 | 0.879 | 0.879 | 0.843 | 0.887 | 0.81 | 0.849 | 0.745 | 0.763 | 0.718 | 1.13 | 1.1 | 1.09 | 1.02 | 1.02 | 0.873 | 0.918 | 0.879 | 0.916 | 0.912
LK-2 | 1.22 | 1.19 | 1.23 | 0.878 | 0.697 | 0.217 | 0.197 | 0.157 | 0.205 | 0.167 | 0.262 | 0.468 | 0.302 | 0.155 | 0.248 | 1.72 | 1.93 | 1.79 | 1.28 | –
LC-2-ad | – | 1.03 | 0.853 | 0.799 | 1 | 0.752 | 0.761 | 0.828 | 0.813 | 0.68 | 0.86 | 0.892 | 0.779 | 0.825 | 0.799 | – | 0.788 | 0.923 | 0.692 | 0.624
NCI-H2085 | 0.716 | 0.805 | 0.801 | 0.725 | 0.868 | 0.858 | 0.706 | 0.767 | 0.612 | 0.549 | 0.97 | 1 | 0.925 | 0.846 | 0.699 | 0.854 | 0.892 | 0.865 | 1.04 | 1.19
RERF-LC-KJ | 0.685 | 0.777 | 0.777 | 0.775 | 0.915 | 0.554 | 0.592 | 0.533 | 0.51 | 0.497 | 0.844 | 1.02 | 1.04 | 0.779 | 0.759 | 0.775 | 0.796 | 0.804 | 0.763 | 0.935
LOU-NH91 | 0.784 | 0.775 | 0.725 | 0.755 | 0.71 | 0.636 | 0.667 | 0.599 | 0.619 | 0.676 | 0.749 | 0.724 | 0.75 | 0.677 | 0.701 | 1.03 | 1.02 | 1.03 | 0.972 | 1.06
NCI-H2347 | 0.582 | 0.881 | 1.04 | 0.832 | 1 | 0.478 | 0.354 | 0.48 | 0.361 | 0.282 | 0.716 | 0.791 | 0.823 | 0.654 | 0.556 | 0.844 | 0.578 | 0.784 | 0.885 | 0.459
LU99A | 0.92 | 0.904 | 0.837 | 0.864 | 0.985 | 0.317 | 0.277 | 0.259 | 0.243 | 0.263 | 0.413 | 0.448 | 0.269 | 0.224 | 0.229 | 0.57 | 0.676 | 0.643 | 0.596 | 0.677
NCI-H3122 | 0.871 | 0.872 | 0.89 | 0.846 | 0.819 | 0.952 | 0.64 | 0.969 | 0.955 | 0.845 | 0.983 | 0.988 | 1.02 | 0.946 | 0.933 | 0.946 | 0.951 | 0.944 | 0.806 | 0.919
HARA | 1 | 1 | 1.14 | 1 | 0.957 | 0.782 | 0.359 | 0.482 | 0.448 | 0.303 | 0.344 | 0.38 | 0.184 | – | 0.128 | – | 1.03 | 1.21 | 1 | 1.09
NCI-H1793 | 0.733 | 0.773 | 0.902 | 0.73 | 0.759 | 0.282 | 0.25 | 0.268 | 0.222 | 0.175 | 0.669 | 0.41 | 0.257 | 0.209 | 0.116 | 0.78 | – | 1.01 | 0.743 | 1.18
NCI-H727 | 0.863 | 0.917 | 0.615 | 0.728 | 0.884 | 0.55 | 0.565 | 0.533 | 0.642 | 0.466 | 0.487 | – | 0.548 | 0.456 | 0.49 | 0.971 | 0.769 | 0.959 | 0.914 | 0.927
201T | – | 1.08 | 1.07 | 0.989 | 1 | – | 0.763 | 0.718 | 0.723 | 0.751 | 0.691 | 0.701 | 0.565 | 0.5 | 0.471 | – | 1.21 | 1.38 | 1.01 | 0.824
NCI-H838 | 1.13 | 0.987 | 0.918 | 0.951 | 0.888 | 0.456 | 0.393 | 0.361 | 0.357 | 0.422 | 0.979 | 0.957 | 0.941 | 0.885 | 0.865 | 1.04 | 1.13 | 1.07 | 0.984 | 0.996
NCI-H1734 | 1.03 | 1.04 | 1.09 | 0.991 | 1.14 | 0.597 | 0.597 | 0.578 | 0.495 | 0.453 | 0.597 | 0.594 | 0.548 | 0.439 | 0.389 | 0.844 | 0.896 | 0.95 | 0.798 | 0.935
ABC-1 | 1.53 | 1.12 | 1.4 | 1.59 | 0.851 | – | 0.543 | 0.453 | 0.499 | 0.336 | – | 0.687 | 0.882 | 0.767 | 0.727 | 1.48 | 1.14 | 1.05 | 1.02 | 0.287
